Test results taken from patent publication US10556875B2, “Bis-diazeniumdiolate compounds as anti-cancer agents” (ARIZONA BOARD OF REGENTS ON BEHALF OF ARIZONA STATE …, priority 2017, dated 2020).
Where two headings read alike, the source gives them in different places.

Legend:
Assay type in all cases: cell-based, human
[1] = test system: BT474 breast cancer cells; assay: In vitro cellular proliferation assay (MTT/MTS)
Protocol: (§1) In Vitro Cellular Proliferation Assay: BT474 breast cancer cells (ATCC® HTB-20, overexpression of HER2), A549 lung cancer cells, leukemia cell CCRF-CEM (ATCC# CCL-119), and leukemia Jurkat cell were cultured at 37° C. in a 5% CO2 atmosphere and grown in Gibco® RPMI 1640 medium supplemented with 10% fetal bovine serum (FBS) and 1% antibiotic-[…] mix antibiotic supplement before use.
(§2) Exponentially growing cells were harvested and plated in 96-well plates at a concentration of 1×10^4 cells/well. After incubation at 37° C. for 24 h, the cells were treated with analogues of JS-K at different concentrations for an additional 24, 48 or 72 h. Then 20 μL of MTT (5 mg/mL) or MTS was added to each well and the plates were incubated at 37° C. for 4 h. The supernatant was discarded for MTT assay, and 100 μL of DMSO was added to each well. For the MTS assay, this step is not necessary. The absorbance was recorded at 490 nm after 15 min. Inhibition of cell growth was obtained by the following formula: Inhibition of cell growth (%)=(ODnegative control−ODtreatment)×100%/(ODnegative control−ODbackground). Data are reported as the mean of three independent experiments, each run in quintuplicate.

[2] = test system: leukemia Jurkat E6-1 cells; assay: In vitro cellular proliferation assay (MTT/MTS)
Protocol: as §1, §2

[3] = test system: leukemia cell CCRF-CEM; assay: In vitro cellular proliferation assay (MTT/MTS)
Protocol: as §1, §2

[4] = test system: A549 lung cancer cells; assay: In vitro cellular proliferation assay (MTT/MTS)
Protocol: as §1, §2

[5] = test system: breast cancer cell MDA-MB-231; assay: In vitro cellular proliferation assay (MTT/MTS)
[6] = test system: BT474, MDA-MB-231, A549, CCRF-CEM and Jurkat cancer cells; assay: In vitro cellular proliferation assay, comparison across the tested cancer cell panel
Protocol: as §1, §2

[7] = Homo sapiens, BT-474, read-out: Half maximal inhibitory concentration (IC50)
[8] = Homo sapiens, Jurkat E6.1, read-out: Half maximal inhibitory concentration (IC50)
[9] = Homo sapiens, CCRF-CEM, read-out: Half maximal inhibitory concentration (IC50)
[10] = Homo sapiens, A549, read-out: Half maximal inhibitory concentration (IC50)
[11] = Homo sapiens, MDA-MB-231, read-out: Half maximal inhibitory concentration (IC50)

| IC50 ([1]; BT474 cells, read-out: Half maximal inhibitory concentration (IC50)) | IC50 ([2]; Jurkat E6-1 cells, read-out: Half maximal inhibitory concentration (IC50)) | IC50 ([3]; leukemia CEM cells, read-out: IC50 against leukemia CEM cells) | IC50 ([4]; A549 cells, read-out: Half maximal inhibitory concentration (IC50)) | IC50 ([5]; MDA-MB-231 cells, read-out: Half maximal inhibitory concentration (IC50)) | Compound | IC50 [1, 7] | IC50 [2, 8] | IC50 [3, 9] | IC50 [4, 10] | IC50 [5, 11] | specific activity to human leukemia cells ([6]; among the compounds of the series) | selectivity to leukemia cells versus breast cancer and lung cancer cells ([6]; compared with JS-K) | IC50 fold higher (less cell killing potency) than for JS-K ([6]; other four cancer cells (other than CEM), relative to JS-K) | IC50 ([3]; Homo sapiens, CCRF-CEM, read-out: IC50 against leukemia CEM cells) | inhibitory effect on cellular proliferation ([6]; all tested cancer cells: BT474, MDA-MB-231, A549, CCRF-CEM, Jurkat) |
| --- | --- | --- | --- | --- | --- | --- | --- | --- | --- | --- | --- | --- | --- | --- | --- |
|  |  |  |  |  | O=[N+]([O-])c1ccc(O/N=[N+](\[O-])N2CCN(CCN3CCN(/[N+]([O-])=N/Oc4ccc([N+](=O)[O-])cc4[N+](=O)[O-])CC3)CC2)c([N+](=O)[O-])c1 [Compound 1, (1Z,1′Z)-1,1′-(ethane-1,2-diylbis(piperazine-4,1-diyl))bis(2-(2,4-dinitrophenoxy)diazene 1-oxide)] | 10.7 ± 0.97 µM | 3.71 ± 0.04 µM | 2640 ± 370 nM | 17.1 ± 1.02 µM | 17.6 ± 0.08 µM |  |  |  |  |  |
|  |  |  |  |  | O=[N+]([O-])c1ccc(O/N=[N+](\[O-])N2CCN(CCCN3CCN(/[N+]([O-])=N/Oc4ccc([N+](=O)[O-])cc4[N+](=O)[O-])CC3)CC2)c([N+](=O)[O-])c1 [Compound 2, (1Z,1′Z)-1,1′-(propane-1,3-diylbis(piperazine-4,1-diyl))bis(2-(2,4-dinitrophenoxy)diazene 1-oxide)] | 10.8 ± 0.08 µM | 4.06 ± 0.18 µM | 3730 ± 150 nM | 18.8 ± 0.21 µM | > 20 µM |  |  |  |  |  |
|  |  |  |  |  | O=[N+]([O-])c1ccc(O/N=[N+](\[O-])N2CCC(CN3CCN(/N=[N+](\[O-])Oc4ccc([N+](=O)[O-])cc4[N+](=O)[O-])CC3)CC2)c([N+](=O)[O-])c1 [Compound 3, (E)-1-(2,4-dinitrophenoxy)-2-(4-((1-((Z)-2-(2,4-dinitrophenoxy)-1-oxidodiazen-1-yl)piperidin-4-yl)methyl)piperazin-1-yl)diazene 1-oxide] | 7.06 ± 1.03 µM | 1.94 ± 0.08 µM | 460 ± 20 nM | 11.3 ± 1.61 µM | 17.9 ± 1.01 µM | highest specific activity | higher selectivity than JS-K | 1.9-5.4 fold | 460 nM |  |
|  |  |  |  |  | O=[N+]([O-])c1ccc(O/N=[N+](\[O-])N2CCN(CC3CCC(CN4CCN(/[N+]([O-])=N/Oc5ccc([N+](=O)[O-])cc5[N+](=O)[O-])CC4)CC3)CC2)c([N+](=O)[O-])c1 (stereo not drawn) [Compound 4, (1Z,1′Z)-1,1′-((cyclohexane-1,4-diylbis(methylene))bis(piperazine-4,1-diyl))bis(2-(2,4-dinitrophenoxy)diazene 1-oxide)] | 6.01 ± 0.21 µM | 3.01 ± 0.22 µM | 2540 ± 140 nM | 18.5 ± 0.15 µM | 16.4 ± 0.53 µM |  |  |  |  |  |
| 3.66 ± 0.41 µM | 0.52 ± 0.02 µM | 290 nM | 2.11 ± 0.15 µM | 7.93 ± 0.47 µM | CCOC(=O)N1CCN(/[N+]([O-])=N/Oc2ccc([N+](=O)[O-])cc2[N+](=O)[O-])CC1 [JS-K, O^2-(2,4-dinitrophenyl) 1-[(4-ethoxycarbonyl)piperazin-1-yl]diazen-1-ium-1,2-diolate, reference compound] |  |  |  |  |  |  |  |  |  | high inhibitory effect |
